Reference: the NIST ThermoML archive (doi:10.1021/je501041r)
± gives the expanded uncertainty stated by the source.

Test: xn = mol fraction of the nth substance listed
Settings: 101 kPa, Liquid; for viscosity: Capillary tube (Ostwald / Ubbelohde) method; for mass density: Vibrating tube method

Structure (SMILES): CC(C)CC(C)(C)C [2,2,4-trimethylpentane] + CCCO
- viscosity (298.15 K, x1 = 0.1): 1.518 ± 0.018 mPa·s
- viscosity (298.15 K, x1 = 0.2): 1.231 ± 0.014 mPa·s
- viscosity (298.15 K, x1 = 0.3): 1.007 ± 0.012 mPa·s
- viscosity (298.15 K, x1 = 0.4): 0.84 ± 0.01 mPa·s
- viscosity (298.15 K, x1 = 0.4999): 0.718 ± 0.008 mPa·s
- viscosity (298.15 K, x1 = 0.5996): 0.644 ± 0.008 mPa·s
- viscosity (298.15 K, x1 = 0.6998): 0.572 ± 0.007 mPa·s
- viscosity (298.15 K, x1 = 0.7995): 0.519 ± 0.006 mPa·s
- viscosity (298.15 K, x1 = 0.9): 0.491 ± 0.006 mPa·s
- viscosity (298.15 K, x1 = 1): 0.478 ± 0.006 mPa·s
- mass density (298.15 K, x1 = 0.02): 795.39 ± 2 kg/m3
- mass density (298.15 K, x1 = 0.04): 790.82 ± 2 kg/m3
- mass density (298.15 K, x1 = 0.06): 786.22 ± 2 kg/m3
- mass density (298.15 K, x1 = 0.1): 777.82 ± 2 kg/m3
- mass density (298.15 K, x1 = 0.2): 759.71 ± 2 kg/m3
- mass density (298.15 K, x1 = 0.3): 744.88 ± 2 kg/m3
- mass density (298.15 K, x1 = 0.4): 732.42 ± 2 kg/m3
- mass density (298.15 K, x1 = 0.4999): 721.93 ± 2 kg/m3
- mass density (298.15 K, x1 = 0.5996): 712.88 ± 2 kg/m3
- mass density (298.15 K, x1 = 0.6998): 704.9 ± 2 kg/m3
- mass density (298.15 K, x1 = 0.7995): 698.16 ± 2 kg/m3
- mass density (298.15 K, x1 = 0.9): 692.36 ± 2 kg/m3
- mass density (298.15 K, x1 = 1): 687.82 ± 2 kg/m3
- viscosity (303.15 K, x1 = 0.1): 1.361 ± 0.016 mPa·s
- viscosity (303.15 K, x1 = 0.2): 1.113 ± 0.013 mPa·s
- viscosity (303.15 K, x1 = 0.3): 0.909 ± 0.011 mPa·s
- viscosity (303.15 K, x1 = 0.4): 0.769 ± 0.009 mPa·s
- viscosity (303.15 K, x1 = 0.4999): 0.664 ± 0.008 mPa·s
- viscosity (303.15 K, x1 = 0.5996): 0.585 ± 0.007 mPa·s
- viscosity (303.15 K, x1 = 0.6998): 0.531 ± 0.006 mPa·s
- viscosity (303.15 K, x1 = 0.7995): 0.488 ± 0.006 mPa·s
- viscosity (303.15 K, x1 = 0.9): 0.464 ± 0.006 mPa·s
- viscosity (303.15 K, x1 = 1): 0.453 ± 0.005 mPa·s
- mass density (303.15 K, x1 = 0.02): 791.36 ± 2 kg/m3
- mass density (303.15 K, x1 = 0.04): 786.77 ± 2 kg/m3
- mass density (303.15 K, x1 = 0.06): 782.15 ± 2 kg/m3
- mass density (303.15 K, x1 = 0.1): 773.72 ± 2 kg/m3
- mass density (303.15 K, x1 = 0.2): 755.54 ± 2 kg/m3
- mass density (303.15 K, x1 = 0.3): 740.67 ± 2 kg/m3
- mass density (303.15 K, x1 = 0.4): 728.17 ± 2 kg/m3
- mass density (303.15 K, x1 = 0.4999): 717.66 ± 2 kg/m3
- mass density (303.15 K, x1 = 0.5996): 708.61 ± 2 kg/m3
- mass density (303.15 K, x1 = 0.6998): 700.62 ± 2 kg/m3
- mass density (303.15 K, x1 = 0.7995): 693.9 ± 2 kg/m3
- mass density (303.15 K, x1 = 0.9): 688.13 ± 2 kg/m3
- mass density (303.15 K, x1 = 1): 683.68 ± 2 kg/m3
- viscosity (308.15 K, x1 = 0.1): 1.223 ± 0.014 mPa·s
- viscosity (308.15 K, x1 = 0.2): 1.004 ± 0.012 mPa·s
- viscosity (308.15 K, x1 = 0.3): 0.831 ± 0.01 mPa·s
- viscosity (308.15 K, x1 = 0.4): 0.709 ± 0.008 mPa·s
- viscosity (308.15 K, x1 = 0.4999): 0.613 ± 0.007 mPa·s
- viscosity (308.15 K, x1 = 0.5996): 0.543 ± 0.006 mPa·s
- viscosity (308.15 K, x1 = 0.6998): 0.5 ± 0.006 mPa·s
- viscosity (308.15 K, x1 = 0.7995): 0.46 ± 0.006 mPa·s
- viscosity (308.15 K, x1 = 0.9): 0.438 ± 0.005 mPa·s
- viscosity (308.15 K, x1 = 1): 0.429 ± 0.005 mPa·s
- mass density (308.15 K, x1 = 0.02): 787.26 ± 2 kg/m3
- mass density (308.15 K, x1 = 0.04): 782.66 ± 2 kg/m3
- mass density (308.15 K, x1 = 0.06): 778.03 ± 2 kg/m3
- mass density (308.15 K, x1 = 0.1): 769.57 ± 2 kg/m3
- mass density (308.15 K, x1 = 0.2): 751.33 ± 2 kg/m3
- mass density (308.15 K, x1 = 0.3): 736.41 ± 2 kg/m3
- mass density (308.15 K, x1 = 0.4): 723.88 ± 2 kg/m3
- mass density (308.15 K, x1 = 0.4999): 713.35 ± 2 kg/m3
- mass density (308.15 K, x1 = 0.5996): 704.28 ± 2 kg/m3
- mass density (308.15 K, x1 = 0.6998): 696.31 ± 2 kg/m3
- mass density (308.15 K, x1 = 0.7995): 689.61 ± 2 kg/m3
- mass density (308.15 K, x1 = 0.9): 683.86 ± 2 kg/m3
- mass density (308.15 K, x1 = 1): 679.52 ± 2 kg/m3
- viscosity (313.15 K, x1 = 0.1): 1.1 ± 0.013 mPa·s
- viscosity (313.15 K, x1 = 0.2): 0.92 ± 0.011 mPa·s
- viscosity (313.15 K, x1 = 0.3): 0.758 ± 0.009 mPa·s
- viscosity (313.15 K, x1 = 0.4): 0.648 ± 0.008 mPa·s
- viscosity (313.15 K, x1 = 0.4999): 0.569 ± 0.007 mPa·s
- viscosity (313.15 K, x1 = 0.5996): 0.51 ± 0.006 mPa·s
- viscosity (313.15 K, x1 = 0.6998): 0.467 ± 0.006 mPa·s
- viscosity (313.15 K, x1 = 0.7995): 0.434 ± 0.005 mPa·s
- viscosity (313.15 K, x1 = 0.9): 0.414 ± 0.005 mPa·s
- viscosity (313.15 K, x1 = 1): 0.408 ± 0.005 mPa·s
- mass density (313.15 K, x1 = 0.02): 783.12 ± 2 kg/m3
- mass density (313.15 K, x1 = 0.04): 778.51 ± 2 kg/m3
- mass density (313.15 K, x1 = 0.06): 773.86 ± 2 kg/m3
- mass density (313.15 K, x1 = 0.1): 765.38 ± 2 kg/m3
- mass density (313.15 K, x1 = 0.2): 747.08 ± 2 kg/m3
- mass density (313.15 K, x1 = 0.3): 732.1 ± 2 kg/m3
- mass density (313.15 K, x1 = 0.4): 719.54 ± 2 kg/m3
- mass density (313.15 K, x1 = 0.4999): 708.99 ± 2 kg/m3
- mass density (313.15 K, x1 = 0.5996): 699.91 ± 2 kg/m3
- mass density (313.15 K, x1 = 0.6998): 691.95 ± 2 kg/m3
- mass density (313.15 K, x1 = 0.7995): 685.26 ± 2 kg/m3
- mass density (313.15 K, x1 = 0.9): 679.55 ± 2 kg/m3
- mass density (313.15 K, x1 = 1): 675.32 ± 2 kg/m3
- viscosity (318.15 K, x1 = 0.1): 0.994 ± 0.012 mPa·s
- viscosity (318.15 K, x1 = 0.2): 0.833 ± 0.01 mPa·s
- viscosity (318.15 K, x1 = 0.3): 0.693 ± 0.008 mPa·s
- viscosity (318.15 K, x1 = 0.4): 0.596 ± 0.007 mPa·s
- viscosity (318.15 K, x1 = 0.4999): 0.529 ± 0.006 mPa·s
- viscosity (318.15 K, x1 = 0.5996): 0.479 ± 0.006 mPa·s
- viscosity (318.15 K, x1 = 0.6998): 0.439 ± 0.005 mPa·s
- viscosity (318.15 K, x1 = 0.7995): 0.41 ± 0.005 mPa·s
- viscosity (318.15 K, x1 = 0.9): 0.393 ± 0.005 mPa·s
- viscosity (318.15 K, x1 = 1): 0.388 ± 0.005 mPa·s
- mass density (318.15 K, x1 = 0.02): 778.94 ± 2 kg/m3
- mass density (318.15 K, x1 = 0.04): 774.31 ± 2 kg/m3
- mass density (318.15 K, x1 = 0.06): 769.64 ± 2 kg/m3
- mass density (318.15 K, x1 = 0.1): 761.14 ± 2 kg/m3
- mass density (318.15 K, x1 = 0.2): 742.76 ± 2 kg/m3
- mass density (318.15 K, x1 = 0.3): 727.73 ± 2 kg/m3
- mass density (318.15 K, x1 = 0.4): 715.13 ± 2 kg/m3
- mass density (318.15 K, x1 = 0.4999): 704.58 ± 2 kg/m3
- mass density (318.15 K, x1 = 0.5996): 695.48 ± 2 kg/m3
- mass density (318.15 K, x1 = 0.6998): 687.53 ± 2 kg/m3
- mass density (318.15 K, x1 = 0.7995): 680.87 ± 2 kg/m3
- mass density (318.15 K, x1 = 0.9): 675.2 ± 2 kg/m3
- mass density (318.15 K, x1 = 1): 671.1 ± 2 kg/m3
- viscosity (323.15 K, x1 = 0.1): 0.903 ± 0.011 mPa·s
- viscosity (323.15 K, x1 = 0.2): 0.767 ± 0.009 mPa·s
- viscosity (323.15 K, x1 = 0.3): 0.648 ± 0.008 mPa·s
- viscosity (323.15 K, x1 = 0.4): 0.554 ± 0.007 mPa·s
- viscosity (323.15 K, x1 = 0.4999): 0.491 ± 0.006 mPa·s
- viscosity (323.15 K, x1 = 0.5996): 0.445 ± 0.005 mPa·s
- viscosity (323.15 K, x1 = 0.6998): 0.413 ± 0.005 mPa·s
- viscosity (323.15 K, x1 = 0.7995): 0.388 ± 0.005 mPa·s
- viscosity (323.15 K, x1 = 0.9): 0.373 ± 0.005 mPa·s
- viscosity (323.15 K, x1 = 1): 0.369 ± 0.005 mPa·s
- mass density (323.15 K, x1 = 0.02): 774.7 ± 2 kg/m3
- mass density (323.15 K, x1 = 0.04): 770.05 ± 2 kg/m3
- mass density (323.15 K, x1 = 0.06): 765.36 ± 2 kg/m3
- mass density (323.15 K, x1 = 0.1): 756.84 ± 2 kg/m3
- mass density (323.15 K, x1 = 0.2): 738.39 ± 2 kg/m3
- mass density (323.15 K, x1 = 0.3): 723.3 ± 2 kg/m3
- mass density (323.15 K, x1 = 0.4): 710.67 ± 2 kg/m3
- mass density (323.15 K, x1 = 0.4999): 700.11 ± 2 kg/m3
- mass density (323.15 K, x1 = 0.5996): 691 ± 2 kg/m3
- mass density (323.15 K, x1 = 0.6998): 683.07 ± 2 kg/m3
- mass density (323.15 K, x1 = 0.7995): 676.44 ± 2 kg/m3
- mass density (323.15 K, x1 = 0.9): 670.81 ± 2 kg/m3
- mass density (323.15 K, x1 = 1): 666.85 ± 2 kg/m3
